{"source": "ChEMBL document CHEMBL1140125", "about": "“Purity-activity relationships of natural products: the case of anti-TB active ursolic acid” (2008)", "key": {"[1]": {"test_system": "Mycobacterium tuberculosis", "assay": "Antimycobacterial activity against Mycobacterium tuberculosis H37Rv ATCC 27294 after 7 days by microplate Alamar blue assay", "assay_type": "functional", "conditions": "168 h"}, "[2]": {"test_system": "Mycobacterium tuberculosis", "assay": "Antimycobacterial activity against Mycobacterium tuberculosis H37Rv GFP after 7 days by green fluorescent microplate assay", "assay_type": "functional", "conditions": "168 h"}}}
{"compound": "C=C(C)[C@@H]1CC[C@]2(C(=O)O)CC[C@]3(C)[C@H](CC[C@@H]4[C@@]5(C)CC[C@H](O)C(C)(C)[C@@H]5CC[C@]43C)[C@@H]12", "note": "[BETULINIC ACID]", "values": [{"measurement": "MIC", "setting": "[1]", "value": "> 128", "unit": "µg/mL"}]}
{"compound": "CC1(C)CC[C@]2(C(=O)O)CC[C@]3(C)C(=CC[C@@H]4[C@@]5(C)CC[C@H](O)C(C)(C)[C@@H]5CC[C@]43C)[C@@H]2C1", "note": "[OLEANOLIC_ACID]", "values": [{"measurement": "MIC", "setting": "[1]", "value": 100, "unit": "µg/mL"}]}
{"compound": "C[C@H]1[C@H](C)CC[C@]2(C(=O)O)CC[C@]3(C)C(=CC[C@@H]4[C@@]5(C)CC[C@H](O)C(C)(C)[C@@H]5CC[C@]43C)[C@H]12", "note": "[URSOLIC ACID]", "values": [{"measurement": "MIC", "setting": "[1]", "value": "> 256", "unit": "µg/mL"}, {"measurement": "MIC", "setting": "[2]", "value": "> 100", "unit": "µg/mL"}]}
